Laboratory results reported in EP2017264A1, “Substituted phenyl propargyl compounds, method for their manufacture and their use as herbicides and plant growth regulators” (BAYER CROPSCIENCE AG, priority 2007, dated 2009).

What was measured:
[1] = system: Echinochloa crus-galli, Setaria viridis, Abuthilon theophrasti, Amaranthus retroflexus und Veronica persica; assay: Post-emergence weed control, greenhouse pot test; assay type: in vivo; conditions: three-leaf stage, Aufwandmenge von 1,28 kg und weniger Aktivsubstanz pro Hektar, visual rating after ca. 3 bis 4 Wochen vs untreated controls
Description: Samen bzw. Rhizomstücke von mono- und dikotylen Unkräutern wurden in Plastiktöpfen in sandigem Lehmboden ausgelegt, mit Erde abgedeckt und im Gewächshaus unter guten Wachstumsbedingungen angezogen. Drei Wochen nach der Aussaat wurden die Versuchspflanzen im Dreiblattstadium behandelt. Die als Spritzpulver bzw. als Emulsionskonzentrate formulierten erfindungsgemäßen Verbindungen wurden in verschiedenen Dosierungen mit einer Wasseraufwandmenge von umgerechnet 600 bis 800 I/ha auf die grünen Pflanzenteile gesprüht. Nach ca. 3 bis 4 Wochen Standzeit der Versuchspflanzen im Gewächshaus unter optimalen Wachstumsbedingungen wurde die Wirkung der Präparate optisch im Vergleich zu unbehandelten Kontrollen bonitiert. Die erfindungsgemäßen Mittel wiesen auch im Nachauflauf eine gute herbizide Wirksamkeit gegen ein breites Spektrum wirtschaftlich wichtiger Ungräser und Unkräuter auf. Beispielsweise zeigten die Beispiele Nr.

[2] = physchem
Description: "LogP" = Verteilungskoeffizient in einem Zweiphasengemisch aus n-Octanol und Wasser.
Die log P-Daten wurden in Übereinstimmung mit der EEC Direktive 79/831, Anlage V.A8 (Annex V.A8) mittels HPLC (High Performance Liquid Chromatography) auf einer Umkehrphase-Säule (reversed-phase column) (C18) mit folgenden Methoden bestimmt: Temperatur: 40°C; Mobile Phase: 0,1 % bzw. 0,06 %ige wässrige Ameisensäure oder 0,1 % wässriger Phosphorsäure und Acetonitril; linearer Gradient von 10% Acetonitril bis 90% bzw. 95 % Acetonitril. Die Kalibrierung wurde ausgeführt mit Hilfe unverzweigter Alkan-2-one (bestehend aus 3 bis 13 bzw.16 Kohlenstoff-Atomen) mit bekannten IogP-Werten (Bestimmung der IogP-Werte über die Retentionszeiten mittels linearer Interpolation zwischen zwei nachfolgenden Alkanonen).

[3] = system: Echinochloa crus-galli, Setaria viridis, Stellaria media und Veronica persica; assay: Pre-emergence weed control, greenhouse pot test; assay type: in vivo; conditions: Aufwandmenge von 1,28 kg oder weniger Aktivsubstanz pro Hektar, visual rating after 3 bis 4 Wochen vs untreated controls
Description: Samen bzw. Rhizomstücke von mono- und dikotylen Unkrautpflanzen wurden in Plastiktöpfen in sandiger Lehmerde ausgelegt und mit Erde abgedeckt. Die in Form von benetzbaren Pulvern oder Emulsionskonzentraten formulierten erfindungsgemäßen Verbindungen wurden dann als wäßrige Suspension bzw. Emulsion mit einer Wasseraufwandmenge von umgerechnet 600 bis 800 l/ha in unterschiedlichen Dosierungen auf die Oberfläche der Abdeckerde appliziert.
Nach der Behandlung wurden die Töpfe im Gewächshaus aufgestellt und unter guten Wachstumsbedingungen für die Unkräuter gehalten. Die optische Bonitur der Pflanzen- bzw. Auflaufschäden erfolgte nach dem Auflaufen der Versuchspflanzen nach einer Versuchszeit von 3 bis 4 Wochen im Vergleich zu unbehandelten Kontrollen. Wie die Testergebnisse zeigten, wiesen die erfindungsgemäßen Verbindungen eine gute herbizide Vorauflaufwirksamkeit gegen ein breites Spektrum von Ungräsern und Unkräutern auf.

SMILES	herbizide Wirkung gegen Schadpflanzen im Nachauflaufverfahren [1]	chromatographic logP [2]	herbizide Wirkung gegen Schadpflanzen im Vorauflaufverfahren [3]
CSc1ccc(C=NOCC#Cc2cccc([S+](C)[O-])c2)cn1 (stereo not shown) [Beispiel 5.188]	sehr gute herbizide Wirkung	2.23	
CC(C)Oc1ccc(C=NOCC#Cc2cccc([S+](C)[O-])c2)cn1 (stereo not shown) [Beispiel 5.181]	sehr gute herbizide Wirkung	2.77	sehr gute herbizide Wirkung
CCOc1ccc(C=NOCC#Cc2cccc([S+](C)[O-])c2)cn1 (stereo not shown) [Beispiel 5.189]	sehr gute herbizide Wirkung	2.42	sehr gute herbizide Wirkung
CSc1cccc(C#CCON=Cc2ccc(OC(C)C)nc2)c1 [Beispiel 5.177]	sehr gute herbizide Wirkung	4.87	sehr gute herbizide Wirkung
Cc1cccc(C=NOC(C)C#Cc2cccc([S+](C)[O-])c2)n1 (stereo not shown) [Beispiel 3.086]	sehr gute herbizide Wirkung	1.57	sehr gute herbizide Wirkung
CCOc1ccc(C=NOCC#Cc2cccc(SC)c2)cn1 [Beispiel 5.190]	sehr gute herbizide Wirkung	4.42	sehr gute herbizide Wirkung
COc1ccc(C=NOCC#Cc2cccc([S+](C)[O-])c2)c(OC)n1 (stereo not shown) [Beispiel 5.185]	sehr gute herbizide Wirkung	2.89	
COc1ncc(C=NOCC#Cc2cccc(SC)c2)cc1F [Beispiel 5.040]	sehr gute herbizide Wirkung	4.23	sehr gute herbizide Wirkung
COc1ccc(C=NOCC#Cc2cccc(SC)c2)cn1 [Beispiel 5.120]	sehr gute herbizide Wirkung	4	sehr gute herbizide Wirkung
COc1ncc(C=NOCC#Cc2cccc([S+](C)[O-])c2)cc1F (stereo not shown) [Beispiel 5.041]	sehr gute herbizide Wirkung	2.28	sehr gute herbizide Wirkung
COc1ccccc1C=NOC(C)C#Cc1cccc(SC)c1 (stereo not shown) [Beispiel 1.301]	sehr gute herbizide Wirkung	4.85	sehr gute herbizide Wirkung
